The target in assay [1] is T1, NaV1.7 (Homo sapiens, UniProt Q15858).
T1 construct: expressed in transfected cells; host or cells: HEK293 (tetracycline-inducible)
The assay is described as follows: Automated patch clamp (Qube 384), internal block of NaV1.7. The format is cell-based. The settings on record: IC50, compound in internal solution, HEK293 cells, read-out: Nav1.7 Intracellular Inhibition. The essentials:
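Tetracycline-induced HEK293 cells, whole-cell Qube recording at 22 degrees; compounds dissolved in internal solution (CsF-based, pH 7.3), exchanged after baseline. Held at −100 mV, 10 ms pulses to −20 mV at 5 Hz for 10 min; remaining current (last 3 points) vs baseline, rundown-corrected with no-drug cells; Hill-fit IC50.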

Assay [2] deals with T1, NaV1.7. The assay is described as follows: Automated patch clamp (Qube 384), external block of NaV1.7. The class given is cell-based. The settings on record: IC50, compound in external solution, HEK293 cells, read-out: Nav1.7 Extracellular Inhibition. On the procedure: NaV1.7 was expressed in HEK293 cells upon induction with tetracycline. Cells were cultured in DMEM containing 10% dialyzed Fetal Bovine Serum (VWR, Radnor, Pa.), 1% Glutamax (VWR, Radnor, Pa.), 1% Penicillin-Streptomycin (VWR, Radnor, Pa.), 100 mg/L Hygromycin (Thermo Fisher Scientific, Waltham, Mass. and 5 mg/L Blasticidin (Alfa Aesar, Haverhill, Mass.). Cells were grown and maintained at 37° C. in a humidified environment containing 10% CO2 in air. Cells were detached from the culture flask for passage and harvested using 0.05% Trypsin-EDTA (Thermo Fisher Scientific, Waltham, Mass.). To induce NaV1.7, cells were induced with tetracycline (0.1-1 μg/mL, IBI Scientific, Peosta, Iowa) the day before recording.
Before experiments, cells were washed with DPBS (VWR, Radnor, Pa.), digested with Detachin (VWR Radnor, Pa.) and then triturated 10 times in CHO Serum-Free Media (VWR Radnor, Pa.) to resuspend the cells and to break apart cell aggregates. Cells were counted and the final concentration was set at 2-5 million cells per mL.
The intracellular solution contained the following: 140 mM CsF, 1 mM/5 mM EGTA/CsOH, 10 mM HEPES, 10 mM NaCl, adjusted to pH 7.3 with CsOH, and osmolality to 320 with OSM solution. The external solution contained the following: 145 mM NaCl, 4 mM KCl, 1 mM MgCl2, 2 mM CaCl2), 10 mM HEPES, 10 mM Glucose, adjusted to pH 7.4 with CsOH and osmolality to 305 with OSM solution. The OSM solution was a normal Ringer solution containing (in mM) NaCl 155, HEPES 10, sucrose, KCl 3.5, CaCl2) 1.5, MgCl2 1 adjusted to pH 7.4 with NaOH. All chemicals are from Sigma-Aldrich, St. Louis, Mo. In order to test the degree of internal block by test compounds, the compounds were dissolved in internal solution at the indicated test concentration. […] In order to test the degree of external block by test compounds the compounds were dissolved in external solution at the indicated test concentration.
Automated Patch Clamps were performed on Qube 384 (Sophion Bioscience, Woburn Mass.) with multihole Qchips at a temperature setting of 22 degrees. The whole cells configuration was formed with default Qube seal and break-in parameter. The membrane potential was held at −100 mV before the voltage protocol began. Two voltage protocols were followed.
Step 1: Cells were held at −100 mV with a depolarized pulse to −20 mV for 10 ms, the interval was set at 5 s. Currents were corrected by default leak subtraction from every pulse. The duration was set at 5 mins.
Step 2: Cells were held at −100 mV with a depolarized pulse to −20 mV for 10 ms. The frequency was 5 Hz. Currents were corrected by leak subtraction calculated before step 2. The duration was set at 4 mins.
After Step 2, the external solution was changed with solutions containing test compounds. Qchips were held at −100 mV without pulsing. The total solution switching time was 8 minutes. After the external solution exchange, cells were recorded using the same procedure as step 2 for 10 minutes.
Data analysis was performed by Sophion Analyzer. Data were corrected with control cells (Non-Drug). The IC50 data were plotted with DR-plots/Hill function (a dose-response plot with a Hill fit). Representative examples of the invention were tested for extracellular inhibition of NaV 1.7 in the automated patch clamp assay. Activity Range is reported as IC50: “++++” ([…], “+++” (1-3 μM), “++” ([…]) or “+” (>10 μM). The results are presented below.

Structures can show the parent of a compound that is named as a salt.

T1 sequence (Q15858 whole entry): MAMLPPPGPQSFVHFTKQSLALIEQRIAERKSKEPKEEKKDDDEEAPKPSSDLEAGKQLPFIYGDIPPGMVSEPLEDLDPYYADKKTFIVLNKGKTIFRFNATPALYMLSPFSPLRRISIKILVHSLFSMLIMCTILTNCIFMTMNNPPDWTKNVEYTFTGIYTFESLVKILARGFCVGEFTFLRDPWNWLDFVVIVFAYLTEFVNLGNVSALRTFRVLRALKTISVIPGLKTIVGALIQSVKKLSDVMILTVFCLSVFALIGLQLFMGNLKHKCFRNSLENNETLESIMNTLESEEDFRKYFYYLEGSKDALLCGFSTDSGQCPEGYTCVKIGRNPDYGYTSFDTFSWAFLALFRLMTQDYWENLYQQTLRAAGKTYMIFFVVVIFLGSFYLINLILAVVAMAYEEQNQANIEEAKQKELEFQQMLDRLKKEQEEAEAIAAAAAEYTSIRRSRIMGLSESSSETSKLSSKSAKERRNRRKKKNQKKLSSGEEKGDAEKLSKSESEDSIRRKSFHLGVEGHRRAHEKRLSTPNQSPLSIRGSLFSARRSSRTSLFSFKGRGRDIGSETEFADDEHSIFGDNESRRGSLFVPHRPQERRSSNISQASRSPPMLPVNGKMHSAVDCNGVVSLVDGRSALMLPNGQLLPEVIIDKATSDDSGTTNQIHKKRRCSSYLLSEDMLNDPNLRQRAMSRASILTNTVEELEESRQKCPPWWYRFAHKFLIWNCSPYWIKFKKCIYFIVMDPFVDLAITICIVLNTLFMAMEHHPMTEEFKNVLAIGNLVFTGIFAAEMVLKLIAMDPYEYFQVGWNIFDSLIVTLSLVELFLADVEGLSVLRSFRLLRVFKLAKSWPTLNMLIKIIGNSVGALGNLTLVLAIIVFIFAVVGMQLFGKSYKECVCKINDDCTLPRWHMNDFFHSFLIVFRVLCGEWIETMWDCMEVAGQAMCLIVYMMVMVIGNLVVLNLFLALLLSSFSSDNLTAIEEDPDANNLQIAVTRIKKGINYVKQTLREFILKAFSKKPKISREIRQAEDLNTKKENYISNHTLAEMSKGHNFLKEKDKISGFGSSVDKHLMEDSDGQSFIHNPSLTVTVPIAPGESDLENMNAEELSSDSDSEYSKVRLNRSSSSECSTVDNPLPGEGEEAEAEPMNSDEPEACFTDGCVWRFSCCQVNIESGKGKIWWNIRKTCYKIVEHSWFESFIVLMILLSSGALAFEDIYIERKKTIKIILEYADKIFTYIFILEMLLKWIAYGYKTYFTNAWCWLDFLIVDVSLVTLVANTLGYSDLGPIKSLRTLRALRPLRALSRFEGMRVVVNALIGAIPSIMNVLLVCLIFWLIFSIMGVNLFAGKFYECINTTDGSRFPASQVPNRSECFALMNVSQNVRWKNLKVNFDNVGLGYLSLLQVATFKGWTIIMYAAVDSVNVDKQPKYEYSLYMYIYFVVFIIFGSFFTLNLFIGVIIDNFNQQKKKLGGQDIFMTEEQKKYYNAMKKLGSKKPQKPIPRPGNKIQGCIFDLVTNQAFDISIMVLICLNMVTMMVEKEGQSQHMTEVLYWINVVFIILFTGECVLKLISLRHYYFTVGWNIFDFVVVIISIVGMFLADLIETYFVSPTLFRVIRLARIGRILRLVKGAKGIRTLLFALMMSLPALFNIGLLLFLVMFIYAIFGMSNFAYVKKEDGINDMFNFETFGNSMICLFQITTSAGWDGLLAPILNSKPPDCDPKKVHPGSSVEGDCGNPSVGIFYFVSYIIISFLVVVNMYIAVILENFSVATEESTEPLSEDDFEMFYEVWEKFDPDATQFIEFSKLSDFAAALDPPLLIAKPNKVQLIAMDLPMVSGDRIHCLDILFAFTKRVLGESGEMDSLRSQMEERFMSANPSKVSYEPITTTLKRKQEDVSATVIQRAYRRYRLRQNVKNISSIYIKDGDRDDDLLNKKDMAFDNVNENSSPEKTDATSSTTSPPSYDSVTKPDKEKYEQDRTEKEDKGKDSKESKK

Take “1-benzyl-1-(2-((2-(dimethylcarbamoyl)-6-methylphenyl) amino)-2-oxoethyl) azepan-1-ium bromide [Compound 81A]”: the IC50 was 0.3 to 1 µM at NaV1.7 [1] and above 10 µM at NaV1.7 [2].
`Cc1cccc(C)c1NC(=O)C[N+]1(Cc2ccccc2)CCCC(C(=O)OC(C)C)C1` (mixture of isomers) [Compound 46A, 1-benzyl-1-(2-((2,6-dimethylphenyl)amino)-2-oxoethyl)-3-(isopropoxycarbonyl) piperidin-1-ium trifluoroacetate salt]: the IC50 fell in the range of 0.3 to 1 µM on NaV1.7 [1] and 3 to 10 µM at NaV1.7 [2].
Consider `Cc1cccc(C)c1NC(=O)C[N+]1(Cc2ccccc2)CCCC(C(N)=O)C1.[Br-]` (mixture of isomers) [Compound 53A, 1-benzyl-3-carbamoyl-1-(2-((2,6-dimethylphenyl)amino)-2-oxoethyl) piperidin-1-ium bromide], for which the IC50 was 0.3 to 1 µM on NaV1.7 [1] and above 10 µM at NaV1.7 [2].
The matching figures for `Cc1cccc(C)c1NC(=O)C[N+]1(Cc2ccccc2)CCCC(F)(F)C1.[Br-]` (centres unmarked) [Compound 32A, 1-benzyl-1-(2-((2,6-dimethylphenyl)amino)-2-oxoethyl)-3,3-difluoropiperidin-1-ium bromide]: 0.3 to 1 µM and above 10 µM.
For the molecule `[2H]c1c([2H])c([2H])c(C[N+]2(CC(=O)Nc3c(C)cccc3C)CCCCCC2)c([2H])c1[2H].[Cl-]` [Compound 33A, 1-(2-((2,6-dimethylphenyl)amino)-2-oxoethyl)-1-((phenyl-d5)methyl) azepan-1-ium chloride], on NaV1.7 [1], the IC50 was 0.3 to 1 µM.
With `COC(=O)c1cccc(C[N+]2(CC(=O)Nc3c(C)cccc3C)CCCCC2)c1.[Br-]` [Compound 35A, 1-(2-((2,6-dimethylphenyl)amino)-2-oxoethyl)-1-(3-(methoxycarbonyl)benzyl) piperidin-1-ium bromide], the results for the IC50 at NaV1.7 [1] and on NaV1.7 [2] were 1 to 3 µM and above 10 µM, respectively.
In the case of `COC(=O)c1ccc(C[N+]2(CC(=O)Nc3c(C)cccc3C)CCCCC2)cc1.[Br-]` [Compound 36A, 1-(2-((2,6-dimethylphenyl)amino)-2-oxoethyl)-1-(4-(methoxycarbonyl)benzyl) piperidin-1-ium bromide], the figures for the IC50 at NaV1.7 [1] and on NaV1.7 [2] were 3 to 10 µM and above 10 µM, respectively.
For `COC(=O)c1ccccc1C[N+]1(CC(=O)Nc2c(C)cccc2C)CCCCC1.[Br-]` [Compound 37A, 1-(2-((2,6-dimethylphenyl)amino)-2-oxoethyl)-1-(2-(methoxycarbonyl)benzyl) piperidin-1-ium bromide], in that order: 0.3 to 1 µM and above 10 µM.
For `Cc1cccc(C)c1N(C)C(=O)C[N+]1(Cc2ccccc2)CCCCCC1` [Compound 38A, 1-benzyl-1-(2-((2,6-dimethylphenyl) (methyl)amino)-2-oxoethyl) azepan-1-ium formate], in that order: 1 to 3 µM and above 10 µM.
In the case of `CCCCNc1ccc(NC(=O)C[N+]2(Cc3ccccc3)CCCCCC2)cc1.O=C[O-]` [Compound 41A, 1-benzyl-1-(2-((4-(butylamino)phenyl)amino)-2-oxoethyl) azepan-1-ium formate], the values for the IC50 on NaV1.7 [1] and on NaV1.7 [2] were 3 to 10 µM and above 10 µM, respectively.
The matching figures for `COC(=O)C1CC[N+](CC(=O)Nc2c(C)cccc2C)(Cc2ccccc2)CC1.[Br-]` (centres unmarked) [Compound 44A, 1-benzyl-1-(2-((2,6-dimethylphenyl)amino)-2-oxoethyl)-4-(methoxycarbonyl) piperidin-1-ium bromide]: below 0.3 µM and above 10 µM.
For `CCOC(=O)C1CCC[N+](CC(=O)Nc2c(C)cccc2C)(Cc2ccccc2)C1.[Br-]` (centres unmarked) [Compound 45A, 1-benzyl-1-(2-((2,6-dimethylphenyl)amino)-2-oxoethyl)-3-(ethoxycarbonyl) piperidin-1-ium bromide], in that order: 0.3 to 1 µM and above 10 µM.
The matching figures for `CCCOC(=O)C1CCC[N+](CC(=O)Nc2c(C)cccc2C)(Cc2ccccc2)C1.[Br-]` (centres unmarked) [Compound 47A, 1-benzyl-1-(2-((2,6-dimethylphenyl)amino)-2-oxoethyl)-3-(propoxycarbonyl) piperidin-1-ium bromide]: 1 to 3 µM and 1 to 3 µM.
For the molecule `CCC(=O)OC1CCC[N+](CC(=O)Nc2c(C)cccc2C)(Cc2ccccc2)C1.[Br-]` (centres unmarked) [Compound 52A, 1-benzyl-1-(2-((2,6-dimethylphenyl)amino)-2-oxoethyl)-3-(propionyloxy) piperidin-1-ium bromide], on NaV1.7 [1], the IC50 is below 0.3 µM.
For the molecule `CCNC(=O)C1CCC[N+](CC(=O)Nc2c(C)cccc2C)(Cc2ccccc2)C1.[Br-]` (centres unmarked) [Compound 54A, 1-benzyl-1-(2-((2,6-dimethylphenyl)amino)-2-oxoethyl)-3-(ethylcarbamoyl) piperidin-1-ium bromide], the IC50 at NaV1.7 [1] is 0.3 to 1 µM; at NaV1.7 [2], above 10 µM.
For `CNC(=O)C1CCC[N+](CC(=O)Nc2c(C)cccc2C)(Cc2ccccc2)C1` (centres unmarked) [Compound 55A], in that order: 0.3 to 1 µM and above 10 µM.
For the molecule `Cc1cccc(C)c1NC(=O)C[N+]1(Cc2ccccc2)CCCC(C(=O)NC(C)C)C1` (centres unmarked) [Compound 56A], the IC50 at NaV1.7 [1] lay in the range of 1 to 3 µM.
Consider `CCCNC(=O)C1CCC[N+](CC(=O)Nc2c(C)cccc2C)(Cc2ccccc2)C1` (centres unmarked) [Compound 57A], for which the IC50 on NaV1.7 [1] lay within 0.3 to 1 µM; on NaV1.7 [2], 3 to 10 µM.
As for `Cc1cccc(C)c1NC(=O)C[N+]1(Cc2ccccc2)CCCC(C(=O)N2CCCC2)C1` (centres unmarked) [Compound 62A], the IC50 at NaV1.7 [1] was 0.3 to 1 µM; on NaV1.7 [2], above 10 µM.
For `Cc1cccc(C)c1NC(=O)C[N+]1(Cc2ccccc2)CCCC(C(=O)N2CCCCC2)C1` (centres unmarked) [Compound 63A], in that order: 0.3 to 1 µM and 3 to 10 µM.
For the molecule `Cc1cccc(C)c1NC(=O)C[N+]1(Cc2ccccc2)CCCC(C(=O)N(C)C)C1.[Br-]` (centres unmarked) [Compound 65A], on NaV1.7 [1], the IC50 is 0.3 to 1 µM.
With `CCN(CC)C(=O)C1CCC[N+](CC(=O)Nc2c(C)cccc2C)(Cc2ccccc2)C1` (centres unmarked) [Compound 66A], the values for the IC50 on NaV1.7 [1] and on NaV1.7 [2] were 1 to 3 µM and above 10 µM, respectively.
For the molecule `CCCOC(=O)N1CCC[N+](CC(=O)Nc2c(C)cccc2C)(Cc2ccccc2)CC1.[Br-]` (centres unmarked) [Compound 68A, 1-benzyl-1-(2-((2,6-dimethylphenyl)amino)-2-oxoethyl)-4-(propoxycarbonyl)-1,4-diazepan-1-ium bromide], the results for the IC50 on NaV1.7 [1] and on NaV1.7 [2] were 0.3 to 1 µM and above 10 µM, respectively.
With `Cc1cccc(F)c1NC(=O)C[N+]1(Cc2ccccc2)CCCCCC1.[Br-]` [Compound 69A, 1-benzyl-1-(2-((2-fluoro-6-methylphenyl)amino)-2-oxoethyl)azepan-1-ium bromide], the IC50 on NaV1.7 [1] is 0.3 to 1 µM; at NaV1.7 [2], 3 to 10 µM.
On to `COc1cccc(C)c1NC(=O)C[N+]1(Cc2ccccc2)CCCCCC1` [Compound 71A], for which the IC50 at NaV1.7 [1] lay within 0.3 to 1 µM.
Take `Cc1cccc(C#N)c1NC(=O)C[N+]1(Cc2ccccc2)CCCCCC1.[Br-]` [Compound 72A]: the IC50 on NaV1.7 [1] fell in the range of 0.3 to 1 µM.
The same measure, in the same setting: the figure for `Cc1cccc(C(C)C)c1NC(=O)C[N+]1(Cc2ccccc2)CCCCCC1.[Br-]` [Compound 74A] is 0.3 to 1 µM.
Regarding `CCCc1cccc(C)c1NC(=O)C[N+]1(Cc2ccccc2)CCCCCC1.[Br-]` [Compound 75A], the figures for the IC50 on NaV1.7 [1] and on NaV1.7 [2] were 1 to 3 µM and 3 to 10 µM, respectively.
As to `Cc1cccc(-c2ccccc2)c1NC(=O)C[N+]1(Cc2ccccc2)CCCCCC1.[Br-]` [Compound 76A], the IC50 on NaV1.7 [1] is 1 to 3 µM.

These data come from patent US11603355B2, “Charged ion channel blockers and methods for use” (Nocion Therapeutics, Inc., priority 2019, dated 2023).
